According to the NIST ThermoML archive (doi:10.1016/j.jct.2011.12.010):

Key:
[1] = for molar entropy: 101.33 kPa, Vacuum adiabatic calorimetry
[2] = Molar enthalpy of transition or fusion; details: Crystal; Adiabatic calorimetry

CC(C)(C)Cc1ccccc1 [(2,2-dimethylpropyl)benzene]
[1]
Details	Triple point temperature [K]	molar entropy [J/K/mol]
5 K, Crystal	–	0.1197
10 K, Crystal	–	0.956
15 K, Crystal	–	3.026
20 K, Crystal	–	6.298
25 K, Crystal	–	10.58
30 K, Crystal	–	15.48
35 K, Crystal	–	20.64
40 K, Crystal	–	25.96
45 K, Crystal	–	31.32
50 K, Crystal	–	36.64
60 K, Crystal	–	46.98
70 K, Crystal	–	57.07
80 K, Crystal	–	66.82
90 K, Crystal	–	76.28
100 K, Crystal	–	85.56
110 K, Crystal	–	94.62
120 K, Crystal	–	103.5
130 K, Crystal	–	112.2
140 K, Crystal	–	120.9
150 K, Crystal	–	129.4
160 K, Crystal	–	137.8
170 K, Crystal	–	146.1
180 K, Crystal	–	154.2
190 K, Crystal	–	162.5
200 K, Crystal	–	170.5
210 K, Crystal	–	178.6
220 K, Crystal	–	186.7
230 K, Crystal	–	194.6
240 K, Crystal	–	202.5
250 K, Crystal	–	210.4
255.43 K, Crystal	–	214.7
255.43 K, Liquid	–	274.9
260 K, Liquid	–	279.4
270 K, Liquid	–	288.9
280 K, Liquid	–	298.4
290 K, Liquid	–	307.7
298.15 K, Liquid	–	315.2
300 K, Liquid	–	316.9
310 K, Liquid	–	325.8
320 K, Liquid	–	334.7
330 K, Liquid	–	343.4
340 K, Liquid	–	351.9
350 K, Liquid	–	360.4
Crystal, Adiabatic calorimetry	255.43	–

Details	Molar enthalpy of transition or fusion [kcal/mol]
[2]	3.676
